Read-outs that look alike come from different tables or passages of the source.
How the values were obtained:
SARS-CoV-2 = experiment: microbe, parasite or virus in culture; type: cell-based; settings: Severe acute respiratory syndrome coronavirus 2, VeroE6/TMPRSS2, 72 h, 50% SARS-CoV-2 infected cell death inhibitory concentration, VeroE6/TMPRSS2 cells, 3 days culture
SARS-CoV-2 3CL protease = SARS-CoV-2 3CL protease (Severe acute respiratory syndrome coronavirus 2, UniProt P0DTD1); experiment: biochemical; settings: 50% SARS-CoV-2 3CL protease inhibitory concentration, read-out: IC50

| Compound | EC50 (SARS-CoV-2; class symbols) [nM] | IC50 (SARS-CoV-2 3CL protease; given as class symbols) [nM] | IC50 (SARS-CoV-2 3CL protease; RapidFire MS) [nM] | EC50 (SARS-CoV-2; CellTiter-Glo 2.0) [nM] |
| --- | --- | --- | --- | --- |
| CS(=O)(=O)c1ccc(Nc2nc(=O)n(Cc3ccc[nH]c3=O)c(=O)n2Cc2cc(F)c(F)c(F)c2)cc1 [Compound I-0033] | < 1000 | 1000 to 10000 | 5600 | – |
| O=C(O)c1ccc(Nc2nc(=O)n(Cc3ccc[nH]c3=O)c(=O)n2Cc2cc(F)c(F)c(F)c2)cc1 [Compound I-0035] | < 1000 | 1000 to 10000 | 3500 | – |
| O=c1[nH]cccc1Cn1c(=O)nc(NC2CCS(=O)(=O)CC2)n(Cc2cc(F)c(F)c(F)c2)c1=O [Compound I-0038] | < 1000 | 1000 to 10000 | 1300 | – |
| COc1ccc(Nc2nc(=O)n(Cc3ccc[nH]c3=O)c(=O)n2Cc2cc(F)c(F)c(F)c2)c(OC)c1 [Compound I-0042] | 1000 to 10000 | < 100 | – | – |
| CN(C)C(=O)c1ccc(Cn2c(=O)nc(Nc3cc4c(cc3Cl)OCC4)n(Cc3cc(F)c(F)c(F)c3)c2=O)c(=O)[nH]1 [Compound I-0064] | 1000 to 10000 | < 100 | – | – |
| CN(C)C(=O)c1ccc(Cn2c(=O)nc(Nc3cc4cn(CC(F)F)nc4cc3Cl)n(Cc3cc(F)c(F)c(F)c3)c2=O)c(=O)[nH]1 [Compound I-0066] | 1000 to 10000 | < 100 | – | – |
| COc1ccc(Nc2nc(=O)n(Cc3cc(Cl)c[nH]c3=O)c(=O)n2Cc2cc(F)c(F)c(F)c2)cc1 [Compound I-0069] | 1000 to 10000 | < 100 | – | – |
| Cn1cc2cc(Nc3nc(=O)n(Cc4cc(Cl)c[nH]c4=O)c(=O)n3Cc3cc(F)c(F)c(F)c3)c(Cl)cc2n1 [Compound I-0077] | < 1000 | < 100 | – | – |
| O=c1[nH]cc(Cl)cc1Cn1c(=O)nc(Nc2cc3cn(CCO)nc3cc2Cl)n(Cc2cc(F)c(F)c(F)c2)c1=O [Compound I-0079] | 1000 to 10000 | < 100 | – | – |
| COc1ccc(Nc2nc(=O)n(Cc3cc4ccsc4[nH]c3=O)c(=O)n2Cc2cc(F)c(F)c(F)c2)cc1 [Compound I-0081] | < 1000 | < 100 | – | – |
| COc1ccc(Nc2nc(=O)n(Cc3cc4cccnc4[nH]c3=O)c(=O)n2Cc2cc(F)c(F)c(F)c2)cc1 [Compound I-0084] | 1000 to 10000 | < 100 | – | – |
| COc1cc(Cl)c(Nc2nc(=O)n(Cc3ccc[nH]c3=O)c(=O)n2Cc2cc(F)c(F)c(F)c2)c(OC)c1 [Compound I-0094] | 1000 to 10000 | < 100 | – | – |
| O=c1[nH]cccc1Cn1c(=O)nc(Nc2ccc(OCC(F)F)cc2Cl)n(Cc2cc(F)c(F)c(F)c2)c1=O [Compound I-0095] | 1000 to 10000 | < 100 | – | – |
| COc1ccc(Nc2nc(=O)n(Cc3cc4cc(OC)ccc4[nH]c3=O)c(=O)n2Cc2cc(F)c(F)c(F)c2)cc1 [Compound I-0100] | 1000 to 10000 | < 100 | – | – |
| Cn1cc2cc(Nc3nc(=O)n(Cc4cc5ccsc5[nH]c4=O)c(=O)n3Cc3cc(F)c(F)c(F)c3)c(Cl)cc2n1 [Compound I-0110] | – | – | 4.2 | 321 |
| Cn1cc2cc(Nc3nc(=O)n(Cc4cn(C)c(=O)[nH]c4=O)c(=O)n3Cc3cc(F)c(F)c(F)c3)c(Cl)cc2n1 [Compound I-0111] | 1000 to 10000 | < 100 | – | – |
| Cc1cncc(-n2c(=O)nc(Nc3cc4cn(C)nc4cc3F)n(Cc3cc(F)c(F)c(F)c3)c2=O)c1 [Compound I-0112] | < 1000 | < 100 | – | – |
| Cc1cncc(-n2c(=O)nc(Nc3cc4cn(C)nc4cc3C)n(Cc3cc(F)c(F)c(F)c3)c2=O)c1 [Compound I-0114] | 1000 to 10000 | < 100 | – | – |
| Cc1nc2cc(C)c(Nc3nc(=O)n(Cc4ccc[nH]c4=O)c(=O)n3Cc3cc(F)c(F)c(F)c3)cc2s1 [Compound I-0116] | 1000 to 10000 | < 100 | – | – |
| COc1ccc(Oc2nc(=O)n(Cc3ccc[nH]c3=O)c(=O)n2Cc2cc(F)c(F)c(F)c2)c(C)c1 [Compound I-0128] | < 1000 | – | 9700 | – |
| COc1ccc(Nc2nc(=O)n(Cc3ccc[nH]c3=O)c(=O)n2Cc2cc(F)c(F)c(F)c2)c(C)c1 [Compound I-0129] | 1000 to 10000 | < 100 | – | – |
| O=c1[nH]cccc1Cn1c(=O)nc(NC2CCOCC2)n(Cc2cc(F)c(F)c(F)c2)c1=O [Compound I-0132] | < 1000 | 1000 to 10000 | 2300 | – |
| COc1ccc(Nc2nc(=O)n(Cc3ccc[nH]c3=O)c(=O)n2CC2CCCCC2)cc1 [Compound I-0134] | < 1000 | 1000 to 10000 | 4000 | – |

| Compound | EC50 (SARS-CoV-2; class symbols) [nM] | IC50 (SARS-CoV-2 3CL protease; given as class symbols) [nM] | IC50 (SARS-CoV-2 3CL protease; RapidFire MS) [nM] | EC50 (SARS-CoV-2; CellTiter-Glo 2.0) [nM] |
| --- | --- | --- | --- | --- |
| COc1ccc(Nc2nc(=O)n(-c3cccnc3)c(=O)n2Cc2cc(F)c(F)c(F)c2)cc1 [Compound I-0135] | 1000 to 10000 | 100 to 1000 | – | – |
| COc1ccc(Nc2nc(=O)n(-c3cncc4ccccc34)c(=O)n2Cc2cc(F)c(F)c(F)c2)cc1 [Compound I-0136] | 1000 to 10000 | < 100 | – | – |
| COc1ccc(Nc2nc(=O)n(-c3cncc4ccccc34)c(=O)n2Cc2cc(F)c(F)c(F)c2)c(Cl)c1 [Compound I-0152] | < 1000 | < 100 | – | – |
| CCc1cc(OC)ccc1Nc1nc(=O)n(Cc2ccc[nH]c2=O)c(=O)n1Cc1cc(F)c(F)c(F)c1 [Compound I-0165] | 1000 to 10000 | < 100 | – | – |
| COc1ccc(Nc2nc(=O)n(Cc3ccc[nH]c3=O)c(=O)n2Cc2cc(F)c(F)c(F)c2)c(Br)c1 [Compound I-0166] | < 1000 | < 100 | – | – |
| O=c1[nH]cccc1Cn1c(=O)nc(N2Cc3ccccc3C2)n(Cc2cc(F)c(F)c(F)c2)c1=O [Compound I-0180] | – | – | 58 | 6410 |
| COc1ccc(Nc2nc(=O)n(Cc3ccc[nH]c3=O)c(=O)n2Cc2cc(F)c(F)cc2Cl)cc1 [Compound I-0194] | 1000 to 10000 | < 100 | – | – |
| COc1ccc(Nc2nc(=O)n(Cc3ccc[nH]c3=O)c(=O)n2Cc2ccc(F)c(Br)c2)cc1 [Compound I-0196] | 1000 to 10000 | < 100 | – | – |
| COc1ccc(Nc2nc(=O)n(Cc3ccc[nH]c3=O)c(=O)n2Cc2cc(Cl)cc(Cl)c2)cc1 [Compound I-0213] | 1000 to 10000 | < 100 | – | – |
| COc1ccc(Nc2nc(=O)n(Cc3ccc[nH]c3=O)c(=O)n2Cc2cc(Cl)ccc2Cl)cc1 [Compound I-0214] | < 1000 | < 100 | – | – |
| COc1ccc(Nc2nc(=O)n(Cc3ccc[nH]c3=O)c(=O)n2Cc2cc(Cl)c(F)cc2F)cc1 [Compound I-0226] | 1000 to 10000 | < 100 | – | – |
| COc1ccc(Nc2nc(=O)n(Cc3ccc[nH]c3=O)c(=O)n2Cc2cc(Cl)c(F)c(Cl)c2)cc1 [Compound I-0227] | 1000 to 10000 | < 100 | – | – |
| COc1ccc(Nc2nc(=O)n(Cc3ccc[nH]c3=O)c(=O)n2Cc2cc(Cl)ccc2F)cc1 [Compound I-0231] | 1000 to 10000 | < 100 | – | – |
| Cn1cc2cc(Nc3nc(=O)n(Cc4cc5cccnc5[nH]c4=O)c(=O)n3Cc3cc(F)c(F)c(F)c3)c(Cl)cc2n1 [Compound I-0236] | < 1000 | < 100 | – | – |
| O=c1[nH]c2ncccc2cc1Cn1c(=O)nc(Nc2cc3cn(CCO)nc3cc2Cl)n(Cc2cc(F)c(F)c(F)c2)c1=O [Compound I-0237] | – | – | 4.2 | 3390 |
| O=c1[nH]cccc1Cn1c(=O)nc(Nc2cc3c(cc2Cl)OCC3)n(Cc2cc(F)c(F)c(F)c2)c1=O [Compound I-0239] | – | – | 3.9 | 225 |
| CCOc1ccc(Nc2nc(=O)n(Cc3ccc[nH]c3=O)c(=O)n2Cc2cc(F)c(F)c(F)c2)c(Cl)c1 [Compound I-0242] | < 1000 | < 100 | – | – |
| COc1cc(Cl)c(Nc2nc(=O)n(Cc3ccc[nH]c3=O)c(=O)n2Cc2cc(F)c(F)c(F)c2)cn1 [Compound I-0245] | 1000 to 10000 | < 100 | – | – |
| O=c1[nH]cccc1Cn1c(=O)nc(Nc2cc3ccnn3cc2Cl)n(Cc2cc(F)c(F)c(F)c2)c1=O [Compound I-0247] | 1000 to 10000 | – | 25 | 3540 |
| COCCCn1cc2cc(Nc3nc(=O)n(Cc4ccc[nH]c4=O)c(=O)n3Cc3cc(F)c(F)c(F)c3)c(Cl)cc2n1 [Compound I-0248] | 1000 to 10000 | < 100 | – | – |
| O=c1[nH]cccc1Cn1c(=O)nc(Nc2cc3cn(CCN4CCOCC4)nc3cc2Cl)n(Cc2cc(F)c(F)c(F)c2)c1=O [Compound I-0249] | 1000 to 10000 | < 100 | – | – |
| O=c1[nH]cc(Cl)cc1Cn1c(=O)nc(Nc2cc3cn(CCN4CCOCC4)nc3cc2Cl)n(Cc2cc(F)c(F)c(F)c2)c1=O [Compound I-0250] | 1000 to 10000 | < 100 | – | – |
| O=c1[nH]cc(Cl)cc1Cn1c(=O)nc(Nc2cc3cn([C@H]4CCC[C@@H]4O)nc3cc2Cl)n(Cc2cc(F)c(F)c(F)c2)c1=O [Compound I-0251] | 1000 to 10000 | < 100 | – | – |

— US12559474B2, “Triazine derivatives having virus replication inhibitory activity and pharmaceutical composition comprising the same” (priority 2021, dated 2026)
